Test results reported in PMC12714101, “CD160-Derived Peptide as a Bidirectional Inhibitor Toward Immune Checkpoints BTLA/HVEM and HVEM/LIGHT” (Journal of Medicinal Chemistry, 2025).
Where a SMILES comes first, the peptide text is derived from it.

Biological target: T1, BTLA/HVEM complex (Homo sapiens, UniProt Q92956)
T1 construct: purchased ACROBiosystems HVM-H52E9 (HVEM-His); BTA-H5255 (BTLA-Fc)
T1 sequence (Q92956 39-202 limits assumed): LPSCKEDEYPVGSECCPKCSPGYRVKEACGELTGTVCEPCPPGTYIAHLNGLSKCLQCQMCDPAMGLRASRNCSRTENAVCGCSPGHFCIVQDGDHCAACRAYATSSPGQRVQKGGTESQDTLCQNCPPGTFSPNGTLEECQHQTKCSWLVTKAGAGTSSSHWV
Experiment: ELISA inhibition of BTLA/HVEM complex formation
Assay type: biochemical
Settings: immobilized HVEM-His, BTLA-Fc 5 μg/mL, PBS-T, 37 °C, mean of three independent experiments; for inhibition at 16.67 µM: peptide 16.67 μM; for inhibition at 50 µM: peptide 50 μM; for inhibition at 150 µM: peptide 150 μM
Experimental: In the subsequent stage of the study, the potential of the obtained compounds to inhibit the interaction between BTLA and HVEM proteins was evaluated using ELISA, following the methodology described in our previous studies. , HVEM was immobilized on the plate and incubated with peptides at three different concentrations, followed by the addition of Fc-tagged BTLA. Detection was carried out using horseradish peroxidase (HRP) conjugated with anti-human IgG and 3,3′,5,5′-tetramethylbenzidine (TMB) as a substrate. Signal intensity was directly proportional to the amount of BTLA bound to HVEM and inversely proportional to the inhibitory activity of the tested peptides. As a control, BTLA and HVEM were incubated in the absence of peptides.
Recombinant human HVEM protein with a His tag was purchased from ACROBiosystems, Newark, DE, USA (no. HVM-H52E9). Recombinant human protein BTLA-Fc and LIGHT-Fc were also purchased from ACROBiosystems, Newark, DE, USA (no. BTA-H5255 and no. LIT-H5269).
ELISA was performed using transparent 96-well NUNC Maxisorp plates (Thermo Fisher Scientific, Waltham, MA, USA). In the first step, HVEM-His, dissolved in PBS at a concentration of 5 μg/mL (100 μL/well), was immobilized on the plate by overnight incubation at 4 °C. Wells were then blocked with 5% bovine serum albumin (BSA) in PBS containing 0.05% Tween 20 (PBS-T) (200 μL/well). Next, peptides dissolved in PBS-T at concentrations of 150, 50, and 16.67 μM were added to the wells (100 μL/well). Following this, BTLA-Fc in PBS-T at a concentration of 5 μg/mL (100 μL/well) was applied. In the next step, goat anti-human IgG antibody conjugated with the HRP (Bio-Rad Laboratories, Hercules, CA, USA) in PBS-T at a ratio of 1:30,000 (v/v) was added (100 μL/well). Colorimetric detection was performed by adding 100 μL of TMB substrate (Thermo Fisher Scientific, Waltham, MA, USA) to each well and incubating the plate in the dark. At each stage, plates were incubated at 37 °C with continuous shaking for 1 h (except TMB, which was incubated for 15 min). After each incubation, wells were washed five times with PBS-T. Absorbance was measured using an Infinite M200 Pro Reader (Tecan Group Ltd., Männedorf, Switzerland) at wavelengths of 650 nm (measurement wavelength) and 492 nm (reference wavelength). Inhibition assays for the HVEM/LIGHT complex were conducted using the same approach, except that LIGHT was used instead of BTLA. The BTLA/HVEM and HVEM/LIGHT complexes without peptides served as controls. Inhibition percentages were calculated based on the assumption that PBS-T has no effect on the formation of BTLA/HVEM or HVEM/LIGHT complexes. Each ELISA was conducted in at least three independent replicates. The data were analyzed using GraphPad Prism 8 software (San Diego, CA, USA).

CC[C@@H]1NC(=O)[C@H](CC)NC(=O)[C@@H](NC(=O)[C@H](Cc2ccc(O)cc2)NC(C)=O)CSSC[C@@H](C(=O)N[C@@H](Cc2ccccc2)C(N)=O)NC(=O)[C@H](Cc2c[nH]cn2)NC(=O)CNC(=O)[C@H](CCC(N)=O)NC(=O)[C@H](CC(C)C)NC(=O)[C@H](CCCNC(=N)N)NC(=O)[C@H]([C@@H](C)CC)NC(=O)CNC(=O)[C@H](CO)NC(=O)[C@H](CCCCN)NC(=O)[C@H](CCC(N)=O)NC(=O)[C@H](CO)NC(=O)[C@H](CCCNC(=N)N)NC(=O)[C@H](C)NC1=O [A2, CD160(110–128)^(Q111C,C112X,C113X,F127C)] (HELM PEPTIDE1{[ac].Y.C.[Abu].[Abu].A.R.S.Q.K.S.G.I.R.L.Q.G.H.C.F.[am]}$PEPTIDE1,PEPTIDE1,3:R3-19:R3$$$V2.0)
inhibition at 16.67 µM: 1.45%
inhibition at 50 µM: 3%
inhibition at 150 µM: 2.26%

CC[C@H](NC(=O)[C@H](CC(C)C)NC(=O)[C@H](Cc1ccccc1)NC(C)=O)C(=O)N[C@@H](CCCCN)C(=O)N[C@@H](CC(=O)O)C(=O)N[C@@H](CCCNC(=N)N)C(=O)N[C@@H](CO)C(=O)NCC(=O)N[C@@H](CC(=O)O)C(=O)N[C@@H](CC)C(=O)N[C@@H](CO)C(=O)N1CCC[C@H]1C(=O)N[C@@H](CCC(=O)O)C(=O)N[C@H](C(=O)N[C@@H](CO)C(=O)N[C@@H](CC(C)C)C(=O)N[C@@H](CCCCN)C(N)=O)[C@@H](C)O [C1, CD160(59–75)^(C61X,C68X)] (HELM PEPTIDE1{[ac].F.L.[Abu].K.D.R.S.G.D.[Abu].S.P.E.T.S.L.K.[am]}$$$$V2.0)
inhibition at 16.67 µM: 4.03%
inhibition at 50 µM: 2.63%
inhibition at 150 µM: 1.99%

CC[C@@H]1NC(=O)[C@@H](NC(=O)[C@H](Cc2ccccc2)NC(C)=O)CSSC[C@@H](C(=O)N[C@@H](CCCCN)C(N)=O)NC(=O)[C@H](CO)NC(=O)[C@H]([C@@H](C)O)NC(=O)[C@H](CCC(=O)O)NC(=O)[C@@H]2CCCN2C(=O)[C@H](CO)NC(=O)[C@H](CC)NC(=O)[C@H](CC(=O)O)NC(=O)CNC(=O)[C@H](CO)NC(=O)[C@H](CCCNC(=N)N)NC(=O)[C@H](CC(=O)O)NC(=O)[C@H](CCCCN)NC1=O [C2, CD160(59–75)^(L60C,C61X,L74C)] (HELM PEPTIDE1{[ac].F.C.[Abu].K.D.R.S.G.D.[Abu].S.P.E.T.S.C.K.[am]}$PEPTIDE1,PEPTIDE1,3:R3-17:R3$$$V2.0)
inhibition at 16.67 µM: -0.94%
inhibition at 50 µM: 1%
inhibition at 150 µM: 0.77%

CC[C@H](NC(=O)[C@H](CCC(N)=O)NC(=O)[C@H](Cc1ccc(O)cc1)NC(C)=O)C(=O)N[C@H]1CSSC[C@@H](C(=O)NCC(=O)N[C@@H](Cc2c[nH]cn2)C(=O)N[C@@H](Cc2ccccc2)C(=O)N[C@@H](Cc2ccccc2)C(N)=O)NC(=O)[C@H](CC(C)C)NC(=O)[C@H](CCCNC(=N)N)NC(=O)[C@H]([C@@H](C)CC)NC(=O)CNC(=O)[C@H](CO)NC(=O)[C@H](CCCCN)NC(=O)[C@H](CCC(N)=O)NC(=O)[C@H](CO)NC(=O)[C@H](CCCNC(=N)N)NC(=O)[C@H](C)NC1=O [A3, CD160(110–128)^(C112X,Q124C)] (HELM PEPTIDE1{[ac].Y.Q.[Abu].C.A.R.S.Q.K.S.G.I.R.L.C.G.H.F.F.[am]}$PEPTIDE1,PEPTIDE1,5:R3-16:R3$$$V2.0)
inhibition at 16.67 µM: -0.96%
inhibition at 50 µM: -0.72%
inhibition at 150 µM: 3.85%

CC[C@H](NC(=O)[C@H](CC(C)C)NC(=O)[C@H](Cc1ccccc1)NC(=O)[C@@H](NC(=O)[C@@H](NC(=O)[C@H](Cc1ccccc1)NC(C)=O)C(C)C)C(C)C)C(=O)N[C@@H](CCCCN)C(=O)N[C@@H](CC(=O)O)C(=O)N[C@@H](CCCNC(=N)N)C(=O)N[C@@H](CO)C(=O)NCC(=O)N[C@@H](CC(=O)O)C(=O)N[C@@H](CC)C(=O)N[C@@H](CO)C(=O)N1CCC[C@H]1C(=O)N[C@@H](CCC(=O)O)C(=O)N[C@H](C(=O)N[C@@H](CO)C(=O)N[C@@H](CC(C)C)C(=O)N[C@@H](CCCCN)C(=O)N[C@@H](CCC(N)=O)C(=O)N[C@@H](CC(C)C)C(=O)N[C@@H](CCCNC(=N)N)C(=O)N[C@@H](CC(C)C)C(N)=O)[C@@H](C)O [B1, CD160(56–79)^(C61X,C68X)] (HELM PEPTIDE1{[ac].F.V.V.F.L.[Abu].K.D.R.S.G.D.[Abu].S.P.E.T.S.L.K.Q.L.R.L.[am]}$$$$V2.0)
inhibition at 16.67 µM: 1.49%
inhibition at 50 µM: 4.68%

CC[C@H](NC(=O)[C@H](CCC(N)=O)NC(=O)[C@H](Cc1ccc(O)cc1)NC(C)=O)C(=O)N[C@@H](CC)C(=O)N[C@H]1CSSC[C@@H](C(=O)N[C@@H](CCC(N)=O)C(=O)NCC(=O)N[C@@H](Cc2c[nH]cn2)C(=O)N[C@@H](Cc2ccccc2)C(=O)N[C@@H](Cc2ccccc2)C(N)=O)NC(=O)[C@H](CCCNC(=N)N)NC(=O)[C@H]([C@@H](C)CC)NC(=O)CNC(=O)[C@H](CO)NC(=O)[C@H](CCCCN)NC(=O)[C@H](CCC(N)=O)NC(=O)[C@H](CO)NC(=O)[C@H](CCCNC(=N)N)NC1=O [A4, CD160(110–128)^(C112X,C113X,A114C,L123C)] (HELM PEPTIDE1{[ac].Y.Q.[Abu].[Abu].C.R.S.Q.K.S.G.I.R.C.Q.G.H.F.F.[am]}$PEPTIDE1,PEPTIDE1,6:R3-15:R3$$$V2.0)
inhibition at 16.67 µM: -2.23%
inhibition at 50 µM: -0.34%
inhibition at 150 µM: -1.77%

CC[C@@H]1NC(=O)[C@H](CC(C)C)NC(=O)[C@@H](NC(=O)[C@@H](NC(=O)[C@@H](NC(=O)[C@H](Cc2ccccc2)NC(C)=O)C(C)C)C(C)C)CSSC[C@@H](C(=O)N[C@@H](CC(C)C)C(=O)N[C@@H](CCCNC(=N)N)C(=O)N[C@@H](CC(C)C)C(N)=O)NC(=O)[C@H](CCCCN)NC(=O)[C@H](CC(C)C)NC(=O)[C@H](CO)NC(=O)[C@H]([C@@H](C)O)NC(=O)[C@H](CCC(=O)O)NC(=O)[C@@H]2CCCN2C(=O)[C@H](CO)NC(=O)[C@H](CC)NC(=O)[C@H](CC(=O)O)NC(=O)CNC(=O)[C@H](CO)NC(=O)[C@H](CCCNC(=N)N)NC(=O)[C@H](CC(=O)O)NC(=O)[C@H](CCCCN)NC1=O [B4, CD160(56–79)^(F59C,C61X,C68X,Q76C)] (HELM PEPTIDE1{[ac].F.V.V.C.L.[Abu].K.D.R.S.G.D.[Abu].S.P.E.T.S.L.K.C.L.R.L.[am]}$PEPTIDE1,PEPTIDE1,5:R3-22:R3$$$V2.0)
inhibition at 16.67 µM: -4.42%
inhibition at 50 µM: 0.29%
inhibition at 150 µM: 9.93%

CC[C@H](NC(=O)[C@H](CC)NC(=O)[C@H](CCC(N)=O)NC(=O)[C@H](Cc1ccc(O)cc1)NC(C)=O)C(=O)N[C@@H](C)C(=O)N[C@@H](CCCNC(=N)N)C(=O)N[C@@H](CO)C(=O)N[C@@H](CCC(N)=O)C(=O)N[C@@H](CCCCN)C(=O)N[C@@H](CO)C(=O)NCC(=O)N[C@H](C(=O)N[C@@H](CCCNC(=N)N)C(=O)N[C@@H](CC(C)C)C(=O)N[C@@H](CCC(N)=O)C(=O)NCC(=O)N[C@@H](Cc1c[nH]cn1)C(=O)N[C@@H](Cc1ccccc1)C(=O)N[C@@H](Cc1ccccc1)C(N)=O)[C@@H](C)CC [A1, CD160(110–128)^(C112X,C113X)] (HELM PEPTIDE1{[ac].Y.Q.[Abu].[Abu].A.R.S.Q.K.S.G.I.R.L.Q.G.H.F.F.[am]}$$$$V2.0)
inhibition at 16.67 µM: 4.31%
inhibition at 50 µM: 6.28%
inhibition at 150 µM: 7.44%
